Where “and” joins values, the source holds several entries; their conditions need not be identical. Identical values can stand only once.
Molecular target: T1, Liver carboxylesterase 1 (Homo sapiens, UniProt P23141)
T1 sequence (P23141 whole entry): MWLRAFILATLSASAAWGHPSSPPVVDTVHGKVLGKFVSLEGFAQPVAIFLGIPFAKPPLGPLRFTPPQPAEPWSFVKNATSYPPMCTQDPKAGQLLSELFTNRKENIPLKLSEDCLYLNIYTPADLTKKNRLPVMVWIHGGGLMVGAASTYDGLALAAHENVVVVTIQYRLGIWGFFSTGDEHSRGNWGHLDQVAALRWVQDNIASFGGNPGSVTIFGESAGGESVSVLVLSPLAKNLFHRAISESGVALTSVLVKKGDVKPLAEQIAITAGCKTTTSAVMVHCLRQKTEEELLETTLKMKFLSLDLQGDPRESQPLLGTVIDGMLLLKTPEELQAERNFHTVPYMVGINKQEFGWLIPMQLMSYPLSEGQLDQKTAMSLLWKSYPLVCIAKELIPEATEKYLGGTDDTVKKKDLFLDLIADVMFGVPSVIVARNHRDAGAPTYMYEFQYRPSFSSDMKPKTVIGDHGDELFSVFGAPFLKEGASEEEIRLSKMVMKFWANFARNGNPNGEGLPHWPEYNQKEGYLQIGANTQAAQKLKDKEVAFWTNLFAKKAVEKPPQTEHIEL
Test: Activity at human recombinant CES1 expressed in baculovirus-infected Spodoptera frugiperda Sf21 cells assessed as substrate hydrolysis by fluorescence assay

COc1ccc2cc([C@H](C#N)OC(=O)[C@H]3[C@H](C=C(Cl)Cl)C3(C)C)ccc2c1
pKm: 5.72

CCOC(=O)[C@H](CCc1ccccc1)N[C@@H](C)C(=O)N1C(=O)N(C)C[C@H]1C(=O)O
pKm: 3.54

COc1cc(C(=O)OCCCN2CCCN(CCCOC(=O)c3cc(OC)c(OC)c(OC)c3)CC2)cc(OC)c1OC [DILAZEP]
pKm: 3.81

COC(=O)[C@H](c1ccccc1Cl)N1CCc2sccc2C1 [CLOPIDOGREL]
pKm: 4.25

CCCC(=O)Oc1ccc([N+](=O)[O-])cc1
pKm: 3.89

CC(=O)Oc1ccc2c3c1O[C@H]1[C@@H](OC(C)=O)C=C[C@H]4[C@@H](C2)N(C)CC[C@@]341 [DIACETYLMORPHINE]
pKm: 2.2

COc1ccc(C(=O)N2CCCC2=O)cc1
pKm: 4.07 and 4.02

CN(C)C(=O)COC(=O)Cc1ccc(OC(=O)c2ccc(NC(=N)N)cc2)cc1 [CAMOSTAT]
pKm: 3.15

CC(C)[C@H](N)C(=O)OC[C@H]1O[C@@H](n2cc(F)c(=O)[nH]c2=O)C[C@@H]1O
pKm: 2.45

CCOC(=O)[C@H](CCc1ccccc1)N[C@H]1CCc2ccccc2N(CC(=O)O)C1=O [BENAZEPRIL]
pKm: 3.13

COc1ccc2cc(C(C#N)OC(=O)C3C(C)(C)C3(C)C)ccc2c1 (centres undefined)
pKm: 5.82

COc1ccc2cc([C@@H](C#N)OC(=O)[C@H]3[C@@H](C=C(Cl)Cl)C3(C)C)ccc2c1
pKm: 5.85

CCOC(=O)[C@H](CCc1ccccc1)N[C@H]1CS[C@H](c2cccs2)CN(CC(=O)O)C1=O [TEMOCAPRIL]
pKm: 3.1

COc1ccc2cc([C@H](C#N)OC(=O)[C@@H]3[C@H](C=C(Cl)Cl)C3(C)C)ccc2c1
pKm: 6.52

CCCCCOC(=O)Nc1nc(=O)n([C@@H]2O[C@H](C)[C@@H](O)[C@H]2O)cc1F [CAPECITABINE]
pKm: 2.89

CC(=O)O[C@H]1C=C[C@H]2[C@H]3Cc4ccc(O)c5c4[C@@]2(CCN3C)[C@H]1O5
pKm: 2.08

CC(=O)Oc1ccc2c(C)cc(=O)oc2c1
pKm: 3.1

N[C@@H](CC(=O)O)C(=O)OC[C@H]1O[C@@H](n2cc(F)c(=O)[nH]c2=O)C[C@@H]1O
pKm: 2.52

N[C@@H](Cc1ccccc1)C(=O)OC[C@H]1O[C@@H](n2cc(F)c(=O)[nH]c2=O)C[C@@H]1O
pKm: 3.34

CC1(C)[C@H](C=C(Cl)Cl)[C@@H]1C(=O)OCc1cccc(Oc2ccccc2)c1
pKm: 4.62

COc1ccc2cc([C@H](C#N)OC(=O)[C@@H]3[C@@H](C=C(Cl)Cl)C3(C)C)ccc2c1
pKm: 5.77

COC(=O)[C@H](c1ccccc1)[C@H]1CCCCN1 [DEXMETHYLPHENIDATE]
pKm: 4.36

CC1(C)[C@@H](C=C(Cl)Cl)[C@@H]1C(=O)OCc1cccc(Oc2ccccc2)c1 (stereo in doubt)
pKm: 5.01

COc1ccc2cc([C@@H](C#N)OC(=O)[C@@H]3[C@@H](C=C(Cl)Cl)C3(C)C)ccc2c1
pKm: 6.15

COC(=O)[C@@H](c1ccccc1)[C@@H]1CCCCN1
pKm: 4.05

CC1(C)[C@H](C=C(Cl)Cl)[C@H]1C(=O)OCc1cccc(Oc2ccccc2)c1 (stereo in doubt)
pKm: 5.01

CCc1c2c(nc3ccc(OC(=O)N4CCC(N5CCCCC5)CC4)cc13)-c1cc3c(c(=O)n1C2)COC(=O)[C@]3(O)CC [IRINOTECAN]
pKm: 2.84

CCOC(=O)[C@H](CCc1ccccc1)N[C@@H](C)C(=O)N1Cc2ccccc2C[C@H]1C(=O)O
pKm: 3.87

COC(=O)[C@H]1[C@@H](OC(=O)c2ccccc2)C[C@@H]2CC[C@H]1N2C [COCAINE]
pKm: 3.92

CCOC(=O)C1=C[C@@H](OC(CC)CC)[C@H](NC(C)=O)[C@@H](N)C1 [OSELTAMIVIR]
pKm: 3.75

COc1ccc2cc([C@H](C#N)OC(=O)[C@H]3[C@@H](C=C(Cl)Cl)C3(C)C)ccc2c1
pKm: 5.82

CCOC(=O)[C@H](CCc1ccccc1)N[C@H]1CCCN2CCC[C@@H](C(=O)O)N2C1=O [CILAZAPRIL]
pKm: 2.89

CC(C)C[C@H](N)C(=O)OC[C@H]1O[C@@H](n2cc(F)c(=O)[nH]c2=O)C[C@@H]1O
pKm: 3.01

CC1(C)[C@H](C(=O)OCc2cccc(Oc3ccccc3)c2)[C@@H]1C=C(Cl)Cl
pKm: 4.62

COc1ccc2cc([C@@H](C#N)OC(=O)[C@H]3[C@H](C=C(Cl)Cl)C3(C)C)ccc2c1
pKm: 5.62

CCOC(=O)[C@H](CCc1ccccc1)N[C@@H](C)C(=O)N(CC(=O)O)C1Cc2ccccc2C1
pKm: 2.82

CC(C)=C[C@H]1[C@H](C(=O)OCc2coc(Cc3ccccc3)c2)C1(C)C (relative stereo)
pKm: 5.17

CC(=O)Oc1ccc([N+](=O)[O-])cc1 [4-NITROPHENYL ACETATE]
pKm: 3.44

CCOC(=O)C1(c2ccccc2)CCN(C)CC1 [MEPERIDINE]
pKm: 2.72

From ChEMBL document CHEMBL1157682, “In silico prediction of human carboxylesterase-1 (hCES1) metabolism combining docking analyses and MD simulations” (Bioorg Med Chem, 2010)
